# Measured values published in patent publication US20140039044A1, “Hydroxylated Polymethoxyflavone Compositions” (WLLGEN, INC., priority 2006, published 2014).
# Where two headings read alike, the source gives them in different places.
# Experiments:
# Type in all cases: cell-based, human
# [Ca^2+]i in MCF-7 cells = Intracellular calcium measurement (fluo-3); details: for Intracellular Ca^2+ levels, in words: 50-100 μM, day 6; for Basal level of [Ca^2+]i, in words: fluo-3/AM, day 3 and 6, dose-dependent
# Description: Concentration of intracellular free Ca^2+ ([Ca^2+]i) was measured with Ca^2+ indicators fura-2 and fluo-3, as described in detail previously, for example, in Sergeev (2004) J. Steroid Biochem. Mol. Biol. 89-90:419-425. For [Ca^2+]i measurements with fluo-3, cells grown in the 96-well, black-wall plates were loaded with 2 μM of fluo-3/AM (Molecular Probes) in Dulbecco's PBS (D-PBS) supplemented with 0.1% DMSO for 40 min at 37° C. Fluorescence (485 nm excitation, 530 nm emission) was measured in the FLx800 plate reader, as described above. For [Ca^2+]i measurements with fura-2, cells grown on coverslips were loaded with 1 μM of fura-2/AM (Molecular Probes) in D-PBS supplemented with 0.1% DMSO and 0.01% Pluronic F-127 for 40 min at 37° C. The dynamics of intracellular Ca^2+ was assessed with cells in the microincubation chamber (37.0±0.2° C.) on a NIKON ECLIPSE TE-300 inverted microscope equipped for epifluorescence, ratiometric, digital imaging. The images were captured using SUPERFLUOR 40× 1.3 NA oil-immersion objective (Nikon) and COOLSNAPFX digital CCD camera (Photometrics), ratioed (340/380 nm excitation, 510 nm emission) on a pixel-by-pixel basis, and stored for analysis. Image analysis was performed using METAFLUOR 6.3 software (Molecular Devices/Universal Imaging).
# [1] = system: MCF-7 breast cancer cells; test: Cell death by propidium iodide uptake; details: MCF-7 cells; for Cell death (propidium iodide), in words: evident at day 6, FIG. 9
# Description: (§1) MCF-7 cells were maintained and assayed as described in Section 8.4 above. Apoptosis was evaluated by the plasma membrane and nuclear changes as previously described in Sergeev (2004) J. Steroid Biochem. Mol. Biol. 89-90:419-425. Briefly, An Annexin V assay (ALEXA FLUOR 488 Annexin V Assay Kit; Molecular Probes) was used for detection of the apoptotic plasma membrane (loss of membrane asymmetry due to phosphatidylserine translocation). Fluorescence (485 nm excitation, 530 nm emission) of the Annexin V-abeled cells grown in 96-well plates was measured in the FLx800 plate reader with KC software (BioTek) and expressed in fluorescence units per 1×10^3 cells. Propidium iodide uptake was used to evaluate non-apoptotic and apoptotic cell death (the dye permeates plasma membrane and stain nucleic acids of both necrotic and the late apoptotic cells). Fluorescence (530 nm excitation, 620 nm emission) of the propidium iodide-labeled cells was also measured in the FLx800 reader. Additionally, HOECHST 33342 and ALEXA FLUOR 488 Annexin V were employed to visualize apoptotic nuclei (nuclear fragmentation) and the apoptotic plasma membrane, respectively. Fluorescence microscopy of HOECHST 33342- and Annexin V-labeled cells was performed as described below for the cellular Ca^2+ and immunofluorescence imaging.
# [2] = system: MCF-7 breast cancer cells; test: Cell growth inhibition (cell number, total nucleic acid content); details: for Inhibition of proliferation, in words: MCF-7 cells, 1, 3 or 6 days, FIG. 7; for IC50: MCF-7 cells, average of the day 3 and day 6 determinations, read-out: Inhibition of cell proliferation (IC50)
# Description: Human colon carcinoma COLO205 and HT-29 cell lines (American Type Culture Collection (ATTC), Manassas, Va.) and the leukemia cell line HL-60 were maintained at 37° C. in 5% CO2 air in RPMI 1640 medium supplemented with 10% heat-inactivated fetal bovine serum (Gibco BRL, Grand Island, N.Y.), 100 units/mL penicillin, 100 μg/mL streptomycin and 2 mM 1-glutamine. The human gastric carcinoma AGS cell line (CCRC 60102), obtained from the Food Industry Research and Development Institute (Hsinchu, Taiwan), was maintained as described above, except that DMEM/F 12 was used as the medium rather than the RPMI 1640 medium. The human breast carcinoma MCF-7 cell line MCF-7 (ATTC) was cultured in RPMI 1640 medium supplemented with 5% fetal calf serum at 37° C. in a humidified atmosphere of 5% CO2 in air. The mouse macrophage cell line RAW 264.7 was maintained in RPMI 1640 supplemented with 100 U/ml penicillin, 100 μg/ml streptomycin, and 10% heat-inactivated fetal calf serum.
# Cancer cells (2×10^5) were plated in 12-well Petri dishes. The next day, the medium was changed and treated with different concentration of the test compounds or compositions for 24 h. Where individual compounds were to be tested, stock solutions of the compound was prepared to contain 200 μM of the individual hydroxylated or non-hydroxylated PMF in dimethylsulfoxide (DMSO). Control cells were treated with DMSO to a final concentration of 0.05% (v/v). Depending on the objective of the particular experiment, cells were treating with test compound or composition for 1, 3 or 6 days. At the end of incubation, cells were harvested for cell count using a hemocytometer and measuring the cellular total nucleic acid content with the CyQUANT Cell Proliferation Assay Kit (Molecular Probes).
# FIG. 7 presents cell number data, where cell numbers of cells treated to PMFs are presented as a percentage of control cells. The IC50 values for inhibition of cell proliferation are presented in Table 15 in which the concentration inhibiting cell growth by 50%, IC50, is presented as the average of the day 3 and day 6 determinations. The apparent minimal effective concentrations, ECmin, for induction of cell death, apoptosis, and increase in [Ca^2+]i are also indicated.
# caspase-12 = test: Caspase-12 activity assay (fluorogenic substrate, immunofluorescence); details: MCF-7 cells, day 3 or 6, FIG. 12B, 13C,D
# Description: (§2) Calpain and caspase-12 activities were measured with the cell-permeable fluorogenic peptide substrates t-Boc-Leu-Met-CMAC (50 μM; CMAC, 7-amino-4-chloromethyl coumarin; Molecular Probes) and Ala-Thr-Ala-Asp-AFC (50 μM; AFC, 7-amino-4-trifluoromethyl coumarin; Caspase-12 Fluorometric Assay Kit, BioVision), respectively. See, e.g., Roser and Gores (2000) Meth. Mol. Biol. 144:2452-2466. Polyclonal antibodies directed against caspase-12 (BioVision) and monoclonal antibodies directed against the calpain small (cleaved) subunit (Chemicon) were used to evaluate activation of these proteases. For immunofluorescence labeling, the fixed and permeabilized cell preparations were pre-incubated with non-specific serum for 20 min, incubated for 1 h at 37° C. or overnight at 4° C. with the primary antibodies and 1 h at room temperature with secondary antibodies using ALEXA FLUOR-488 signal-amplification mouse antibodies (Molecular Probes) and FITC- or Texas Red-conjugated anti-rabbit and anti-mouse IgG (Molecular Probes). Fluorescence microscopy was carried out as described above for Ca^2+ imaging. Image analysis and measurement of fluorescence intensity was performed using MetaMorph 6.3 software (Molecular Devices/Universal Imaging), as described previously in Sergeev (1996) Endocrine 5: 335-340.
# [3] = system: MCF-7 breast cancer cells; test: Apoptosis assay (Annexin V, Hoechst 33342); details: MCF-7 cells; for Apoptosis by morphological criteria (nuclear fragmentation): Hoechst 33342
# Description: as §1
# calpain = test: Calpain activity assay (fluorogenic substrate, immunofluorescence); details: MCF-7 cells; for Calpain activation, in words: day 3 or 6, FIG. 12A, 13A,B
# Description: as §2
# [4] = day 3 and 6 of treatment, dose-dependent
SMILES,"Increase in [Ca^2+]i (ECmin, apparent minimal effective concentration) ([Ca^2+]i in MCF-7 cells)","Intracellular Ca^2+ levels, in words ([Ca^2+]i in MCF-7 cells)","Induction of cell death (ECmin, apparent minimal effective concentration) [1]","Cell death (propidium iodide), in words [1]","Inhibition of proliferation, in words [2]",IC50 [2],"Caspase-12 activation, in words (caspase-12)","Induction of cell apoptosis (ECmin, apparent minimal effective concentration) [3]","Proapoptotic activity (Annexin V), in words ([3]; 25-100 μM, day 6 of treatment)",Apoptosis by morphological criteria (nuclear fragmentation) [3],"Number of cells with activated calpain, in words (calpain; day 3 of treatment)","Calpain activation, in words (calpain)","IC50 ([2]; Homo sapiens, MCF7)","Induction of apoptosis (Annexin V), in words ([3]; 50-100 μM, day 6 of treatment)","Basal level of [Ca^2+]i, in words ([Ca^2+]i in MCF-7 cells)","Induction of apoptosis (Annexin V), in words [3, 4]"
"COc1ccc(-c2oc3c(OC)c(OC)c(OC)c(OC)c3c(=O)c2OC)cc1OC [D, 3,5,6,7,8,3,4-heptamethoxyflavone, reference compound]",>50 µM,only a trend in increasing intracellular Ca^2+ levels,>50 µM,not effective in inducing non-apoptotic cell death,inhibited proliferation of MCF-7 breast cancer cells in a dose- and time-dependent fashion,> 50 µM,No significant calpain and caspase-12 activation,>50 µM,low proapototic activity,confirmed apoptosis,a trend in increasing the number of cells with activated calpain,No significant calpain and caspase-12 activation,,,,
"COc1ccc(-c2cc(=O)c3c(OC)c(OC)c(OC)cc3o2)cc1OC [Compound 7, 5,6,7,3′,4′-pentamethoxyflavone, reference compound]",>50 µM,only a trend in increasing intracellular Ca^2+ levels,>50 µM,not effective in inducing non-apoptotic cell death,inhibited proliferation of MCF-7 breast cancer cells in a dose- and time-dependent fashion,,No significant calpain and caspase-12 activation,>50 µM,,,,No significant calpain and caspase-12 activation,> 50 µM,only a trend in inducing apoptosis,,
"COc1ccc(-c2oc3c(OC)c(OC)c(OC)c(O)c3c(=O)c2OC)cc1OC [Compound C, 5-hydroxy-3,6,7,8,3′,4′-hexamethoxyflavone]",1.56 µM,,3.125 µM,induced death of MCF-7 breast cancer cells,inhibited proliferation of MCF-7 breast cancer cells in a dose- and time-dependent fashion,,activation,1.56 µM,,confirmed apoptosis,,activation,2.5 µM,,induced an increase in the basal level of [Ca^2+]i,induced apoptosis
"COc1ccc(-c2cc(=O)c3c(OC)c(OC)c(OC)cc3o2)cc1O [Compound 5, 3′-hydroxy-5,6,7,4′-tetramethoxyflavone]",3.125 µM,,6.25 µM,induced death of MCF-7 breast cancer cells,inhibited proliferation of MCF-7 breast cancer cells in a dose- and time-dependent fashion,,activation,3.125 µM,,confirmed apoptosis,,activation,10.5 µM,,induced an increase in the basal level of [Ca^2+]i,induced apoptosis
